Columns and labels:
Conditions in all cases: for Kd: ARS displacement, 0.1M phosphate buffer, pH 7.4, 25° C.
[1] = Alizarin Red S (ARS) displacement assay, binding to fructose
Procedure: (§1) The association constant for the binding event between Alizarin Red S (ARS) and the compounds of each of examples 1-24 was determined using standard methods in the art. Triplicate titrations of 10^-5 M ARS in 0.1M phosphate buffer, pH 7.4, were performed in a 96-well plate against serial dilutions of example compounds, ranging in concentration from 0-0.1M at 25° C. The example compound-ARS solution was incubated for 5-45 minutes at 25° C., and absorbance intensity was measured using excitation wavelength 468 nm and emission wavelength 585 nm. Changes in intensity were plotted against the concentration of the example compound, and the intensity data was fitted to yield an association constant for ARS binding.
(§2) The association constant for the binding between a target sugar compound (e.g., glucose) and a boronate compound was determined via the displacement of ARS bound to the example compounds. Triplicate wells of 10^-5 M ARS and 0.1M example compounds in 0.1M phosphate buffer, pH 7.4, were titrated in a 96-well plate against serial dilutions of the target sugar compound, ranging in concentration from 0-2.0 M at 25° C. The boronate-ARS-carbohydrate solution was incubated for 30-60 minutes at 25° C. and the intensity of each well was measured in a plate reader at excitation wavelength 468 nm and emission wavelength 585 nm. Changes in intensity were plotted against concentration of the target sugar compound, and the data was fitted to a one-site competition equation:
(§3) [formula] to yield an association constant for the boronate compound-target sugar compound binding event.

[2] = Alizarin Red S (ARS) displacement assay, binding to glucose
Procedure: as §1, §2, §3

[3] = Alizarin Red S (ARS) displacement assay, binding to lactate
Procedure: as §1, §2, §3

[4] = Example 7 (heterobifunctional, boroxole) compared to Example 5

Structure (SMILES)	Kd [1] [mM]	Kd [2] [mM]	Kd [3] [mM]	increase in affinity to lactate [3, 4] [fold]	increase in affinity to fructose [1, 4] [fold]	increase in affinity to glucose [2, 4] [fold]
NC(=O)[C@H](CNC(=O)c1sccc1B(O)O)NC(=O)c1sccc1B(O)O [Example 8, (S)-(2-((1-amino-3-(3-boronothiophene-2-carboxamido)-1-oxopropan-2-yl)carbamoyl)thiophen-3-yl)boronic acid]	2.2	32				
O=C(O)CN(Cc1ccc(CNC(=O)c2cc(B(O)O)cc([N+](=O)[O-])c2)cc1)C(=O)c1cc(B(O)O)cc([N+](=O)[O-])c1 [Example 12, N-(4-((3-borono-5-nitrobenzamido)methyl)benzyl)-N-(3-borono-5-nitrobenzoyl)glycine]	12.1					
O=C(O)CN(CCCCCNC(=O)c1cc(B(O)O)cc([N+](=O)[O-])c1)C(=O)c1cc(B(O)O)cc([N+](=O)[O-])c1 [Example 11, N-(5-(3-borono-5-nitrobenzamido)pentyl)-N-(3-borono-5-nitrobenzoyl)glycine]	24.7					
NC(=O)[C@H](CNC(=O)c1cc2c(c(C(F)(F)F)c1)COB2O)NC(=O)c1cc(B(O)O)cc([N+](=O)[O-])c1 [Example 6, (S)-(3-((1-amino-3-(1-hydroxy-4-(trifluoromethyl)-1,3-dihydrobenzo[c][1,2]oxaborole-6-carboxamido)-1-oxopropan-2-yl)carbamoyl)-5-nitrophenyl)boronic acid]	4.6	3.4	74.1			
O=C(O)CN(CCCCNC(=O)c1cc(B(O)O)cc([N+](=O)[O-])c1)C(=O)c1cc(B(O)O)cc([N+](=O)[O-])c1 [Example 10, N-(4-(3-borono-5-nitrobenzamido)butyl)-N-(3-borono-5-nitrobenzoyl)glycine]	11.5	99.8				
O=C(O)CN(C(=O)c1ccc(F)c(B(O)O)c1)[C@H]1CCCC[C@H]1NC(=O)c1ccc(F)c(B(O)O)c1 [Example 18, N-((1S,2R)-2-(3-borono-4-fluorobenzamido)cyclohexyl)-N-(3-borono-4-fluorobenzoyl)glycine]	6.04	95.4	67.5			
NC(=O)[C@H](CNC(=O)c1ccc2c(c1)B(O)OC2)NC(=O)c1cc(B(O)O)cc([N+](=O)[O-])c1 [Example 4, (S)-(3-((1-amino-3-(1-hydroxy-1,3-dihydrobenzo[c][1,2]oxaborole-6-carboxamido)-1-oxopropan-2-yl)carbamoyl)-5-nitrophenyl)boronic acid]	5.6	13				
CS(=O)(=O)c1ccc(B(O)O)cc1C(=O)N[C@@H]1C[C@H](C(N)=O)N(C(=O)c2cc(B(O)O)ccc2S(C)(=O)=O)C1 [Example 1, (3-((2R,4R)-4-(5-borono-2-(methylsulfonyl)benzamido)-2-carbamoylpyrrolidine-1-carbonyl)-4-(methylsulfonyl)phenyl)boronic acid]	1.7	25.2	38.3			
O=C(O)CN(Cc1cccc(CNC(=O)c2ccc(F)c(B(O)O)c2)c1)C(=O)c1ccc(F)c(B(O)O)c1 [Example 17, N-(3-((3-borono-4-fluorobenzamido)methyl)benzyl)-N-(3-borono-4-fluorobenzoyl)glycine]	6.5	88.6	53.5			
O=C(O)CNC(=O)[C@@H]1C[C@H](NC(=O)c2ccc3c(c2)B(O)OC3)CN1C(=O)c1ccc2c(c1)B(O)OC2 [Example 2, ((2S,4S)-1-(1-hydroxy-1,3-dihydrobenzo[c][1,2]oxaborole-6-carbonyl)-4-(1-hydroxy-1,3-dihydrobenzo[c][1,2]oxaborole-6-carboxamido)pyrrolidine-2-carbonyl)glycine]	2	3.7	58			
O=C(O)CN(Cc1ccc(CNC(=O)c2ccc(B(O)O)c(F)c2)cc1)C(=O)c1ccc(B(O)O)c(F)c1 [Example 21, N-(4-((4-borono-3-fluorobenzamido)methyl)benzyl)-N-(4-borono-3-fluorobenzoyl)glycine]	13.5					
O=C(O)CN(CCCNC(=O)c1cc(B(O)O)cc([N+](=O)[O-])c1)C(=O)c1cc(B(O)O)cc([N+](=O)[O-])c1 [Example 9, N-(3-(3-borono-5-nitrobenzamido)propyl)-N-(3-borono-5-nitrobenzoyl)glycine]	10.6	6.5				
NC(=O)[C@H](CNC(=O)c1ccc2c(c1)B(O)OC2)NC(=O)c1cc(B(O)O)ccc1[N+](=O)[O-] [Example 7, (S)-(3-((1-amino-3-(J-hydroxy-1,3-dihydrobenzo[c][1,2]oxaborole-6-carboxamido)-1-oxopropan-2-yl)carbamoyl)-4-nitrophenyl)boronic acid]	1.2	4.4	39.5	~7	~7	~7
O=C(O)CN(Cc1cccc(CNC(=O)c2cc(Br)cc(B(O)O)c2)c1)C(=O)c1cc(Br)cc(B(O)O)c1 [Example 24, N-(3-((3-borono-5-bromobenzamido)methyl)benzyl)-N-(3-borono-5-bromobenzoyl)glycine]	9.36	93.7				
O=C(O)CN(CCCNC(=O)c1ccc(B(O)O)c(F)c1)C(=O)c1ccc(B(O)O)c(F)c1 [Example 19, N-(3-(4-borono-3-fluorobenzamido)propyl)-N-(4-borono-3-fluorobenzoyl)glycine]	2.87	43	31			
O=C(O)CNC(=O)[C@@H]1C[C@H](NC(=O)c2ccc3c(c2)B(O)OC3)CN1C(=O)c1cc(B(O)O)ccc1[N+](=O)[O-] [Example 3, ((2S,4S)-1-(5-borono-2-nitrobenzoyl)-4-(1-hydroxy-1,3-dihydrobenzo[c][1,2]oxaborole-6-carboxamido)pyrrolidine-2-carbonyl)glycine]	1.9	14	48			
O=C(O)CN(CCCCCNC(=O)c1ccc(B(O)O)c(F)c1)C(=O)c1ccc(B(O)O)c(F)c1 [Example 20, N-(S-(4-borono-3-fluorobenzamido)pentyl)-N-(4-borono-3-fluorobenzoyl)glycine]	5.86	30.4	70.3			
O=C(O)CN(Cc1cccc(CNC(=O)c2ccc(B(O)O)c(F)c2)c1)C(=O)c1ccc(B(O)O)c(F)c1 [Example 22, N-(3-((4-borono-3-fluorobenzamido)methyl)benzyl)-N-(4-borono-3-fluorobenzoyl)glycine]	9.52	16.1	97.3			
NC(=O)[C@H](CNC(=O)c1cc(B(O)O)ccc1[N+](=O)[O-])NC(=O)c1cc(B(O)O)ccc1[N+](=O)[O-] [Example 5, (S)-(3-((1-amino-3-(5-borono-2-nitrobenzamido)-1-oxopropan-2-yl)carbamoyl)-4-nitrophenyl)boronic acid]	11	29.4				
O=C(O)CN(Cc1cccc(CNC(=O)c2cc(B(O)O)cc([N+](=O)[O-])c2)c1)C(=O)c1cc(B(O)O)cc([N+](=O)[O-])c1 [Example 13, N-(3-((3-borono-5-nitrobenzamido)methyl)benzyl)-N-(3-borono-5-nitrobenzoyl)glycine]	17.8					
O=C(O)CN(CCCNC(=O)c1ccc(F)c(B(O)O)c1)C(=O)c1ccc(F)c(B(O)O)c1 [Example 15, N-(3-(3-borono-4-fluorobenzamido)propyl)-N-(3-borono-4-fluorobenzoyl)glycine]	4.8	59	51.6			
NC(=O)CN(C(=O)c1ccc2c(c1)B(O)OC2)[C@@H]1CCCC[C@H]1NC(=O)c1ccc2c(c1)B(O)OC2 [Example 14, N-(2-amino-2-oxoethyl)-1-hydroxy-N-((1R,2R)-2-(1-hydroxy-1,3-dihydrobenzo[c][1,2]oxaborole-6-carboxamido)cyclohexyl)-1,3-dihydrobenzo[c][1,2]oxaborole-6-carboxamide]	5.88	1.64	59.8			

— US12709622B2, “Conjugates for selective responsiveness to vicinal diols” (PROTOMER TECHNOLOGIES, INC., priority 2020, dated 2026)
